Laboratory results: patent US11459327B1, “Cycloalkyl and hetero-cycloalkyl inhibitors, preparation methods therefor, and use thereof” (Suzhou Zelgen Biopharmaceuticals Co., Ltd., priority 2019, dated 2022)

Test system: NCI-H358(KRAS^G12C mutation) cells
Test: Cell assay of antiproliferative activity (Celltiter-Glo, 5 days) against NCI-H358 cells
Format: cell-based
Conditions: 5 days incubation
Method: Cell assay of antiproliferative activity of compounds against NCI-H358(KRAS^G12C mutation) and A549(KRAS^G12S mutation) cells.
40 μl phosphate buffer was added to the outer wells of the 384 microplate, and 40 μl cell suspension to be tested was added to the other wells. Then the microplate was incubated in a carbon dioxide incubator overnight.
The compounds to be tested were gradiently diluted, each compound was performed 10 concentration gradients (diluted from 50 μM to 0.003 μM) and added 100 nL to the corresponding wells in the microplate. After addition, 40 μl of phosphate buffer was added to each well in rows A and P and columns 1 and 24, and then the microplate was incubated in a carbon dioxide incubator for 5 days.
20 μL of Promega Celltiter-Glo reagent was added to each well of the microplate, and then the luminescence signal was stabilized by oscillating at room temperature for 10 min. Then PekinElmer Envision multi-label analyzer was used to read.
Finally, GraphPad Prism software was used to calculate the IC50 value of the compound and the fitting curve was drawn.
Anti-proliferative activity of the compounds of the present invention against NCI-H358(KRAS^G12C mutation) and A549(KRAS^G12S mutation) cells were shown in Table 1.

IC50 (Homo sapiens, NCI-H358, 120 h) | SMILES | IC50
 | C=C(F)C(=O)N1CCN(c2nc(OCC3(C(C)N(C)C)CC3)nc3c2CCN(c2cccc4cccc(Cl)c24)C3)C[C@@H]1CC#N (stereo partly drawn) [Example 47A, 2-((2S)-4-(7-(8-chloronaphthalen-1-yl)-2-((1-(1-(dimethylamino)ethyl)cyclopropyl)methoxy)-5,6,7,8-tetrahydropyrido[3,4-d]pyrimidin-4-yl)-1-(2-fluoroacroloyl)piperazin-2-yl) acetonitrile] | 100 nM
 | C=C(F)C(=O)N1CCN(c2nc(OCC3(C(C)N(C)C)CC3)nc3c2CCN(c2cccc4cccc(Cl)c24)C3)C[C@@H]1CC#N (stereo partly drawn) [Example 47B, 2-((2S)-4-(7-(8-chloronaphthalen-1-yl)-2-((1-(1-(dimethylamino)ethyl)cyclopropyl)methoxy)-5,6,7,8-tetrahydropyrido[3,4-d]pyrimidin-4-yl)-1-(2-fluoroacroloyl)piperazin-2-yl) acetonitrile] | 71 nM
65 nM | C=C(F)C(=O)N1CCN(c2nc(OCC3(CN4CCC4)CC3)nc3c2CCN(c2cccc4cccc(Cl)c24)C3)C[C@@H]1CC#N [Example 48] | 
43 nM | CC#CC(=O)N1CCN(c2nc(OCC3(CN(C)C)CC3)nc3c2CCN(c2cccc4cccc(Cl)c24)C3)C[C@@H]1CC#N [Example 49, (S)-2-(1-(but-2-ynoyl)-4-(7-(8-chloronaphthalen-1-yl)-2-((1-((dimethylamino)methyl)cyclopropyl)methoxyl)-5,6,7,8-tetrahydropyrido[3,4-d]pyrimidin-4-yl)piperazin-2-yl) acetonitrile] | 
300 nM | C=CC(=O)N1CCN(c2nc(OCC3(CN(C)C)CC3)nc3c2CCN(c2cccc4cccc(Cl)c24)C3)[C@@H](C)C1 [Example 50, (S)-1-(-4-(7-(8-chloronaphthalen-1-yl)-2-((1-((dimethylamino)methyl)cyclopropyl)methoxyl)-5,6,7,8-tetrahydropyrido[3,4-d]pyrimidin-4-yl)-3-methylpiperazin-1-yl)prop-2-ene-1-one] | 
540 nM | C=C(F)C(=O)N1CCN(c2nc(OCC3(CCN(C)C)CC3)nc3c2CCN(c2cccc4cccc(Cl)c24)C3)C[C@@H]1CC#N [Example 52, (S)-2-(4-(7-(8-chloronaphthalen-1-yl)-2-((1-(2-(dimethylamino)ethyl)cyclopropyl)methoxy)-5,6,7,8-tetrahydropyrido[3,4-d]pyrimidin-4-yl)-1-(2-fluoroacroloyl)piperazin-2-yl) acetonitrile] | 
 | C=C(F)C(=O)N1CCN(c2nc(OCC3(C(C)N(C)C)CC3)nc3c2CCN(c2cccc4cccc(Cl)c24)C3)C[C@@H]1CC#N (stereo partly drawn) [Example 53A, 2-((2S)-4-(7-(8-chloronaphthalen-1-yl)-2-(1-(1-((dimethylamino)ethyl)cyclopropyl)methoxy)-5,6,7,8-tetrahydropyrido[3,4-d]pyrimidin-4-yl)-1-(2-fluoroacroloyl)piperazin-2-yl) acetonitrile] | 1400 nM
 | C=C(F)C(=O)N1CCN(c2nc(OCC3(C(C)N(C)C)CC3)nc3c2CCN(c2cccc4cccc(Cl)c24)C3)C[C@@H]1CC#N (stereo partly drawn) [Example 53B, 2-((2S)-4-(7-(8-chloronaphthalen-1-yl)-2-(1-(1-((dimethylamino)ethyl)cyclopropyl)methoxy)-5,6,7,8-tetrahydropyrido[3,4-d]pyrimidin-4-yl)-1-(2-fluoroacroloyl)piperazin-2-yl) acetonitrile] | 1300 nM
47 nM | C=C(F)C(=O)N1CCN(c2nc(OCC3(CN(C)CC)CC3)nc3c2CCN(c2cccc4cccc(Cl)c24)C3)C[C@@H]1CC#N [Example 54, (S)-2-(4-(7-(8-chloronaphthalen-1-yl)-2-((1-((ethyl (methyl)amino)methyl)cyclopropyl)methoxy)-5,6,7,8-tetrahydropyrido[3,4-d]pyrimidin-4-yl)-1-(2-fluoroacroloyl)piperazin-2-yl) acetonitrile] | 
870 nM | C=C(F)C(=O)N1CCN(c2nc(OCCN(C)C34CC(C3)C4)nc3c2CCN(c2cccc4cccc(Cl)c24)C3)C[C@@H]1CC#N [Example 55] | 
61 nM | C=C(F)C(=O)N1CCN(c2nc(OCC3(CN(C)C(C)C)CC3)nc3c2CCN(c2cccc4cccc(Cl)c24)C3)C[C@@H]1CC#N [Example 56, (S)-2-(4-(7-(8-chloronaphthalen-1-yl)-2-((1-((isopropyl(methyl)amino)methyl)cyclopropyl)methoxy)-5,6,7,8-tetrahydropyrido[3,4-d]pyrimidin-4-yl)-1-(2-fluoroacroloyl)piperazin-2-yl) acetonitrile] | 
1300 nM | C=C(F)C(=O)N1CCN(c2nc(OCC3(CS(C)(=O)=O)CC3)nc3c2CCN(c2cccc4cccc(Cl)c24)C3)C[C@@H]1CC#N [Example 57, (S)-2-(4-(7-(8-chloronaphthalen-1-yl)-2-((1-((methylsulfonyl)methyl)cyclopropyl)methoxy)-5,6,7,8-tetrahydropyrido[3,4-d]pyrimidin-4-yl)-1-(2-fluoroacroloyl)piperazin-2-yl) acetonitrile] | 
65 nM | C=C(F)C(=O)N1CCN(c2nc(OCC3(CN4CCC4)CC3)nc3c2CCN(c2cccc4ccc(F)c(Cl)c24)C3)C[C@@H]1CC#N [Example 58, (S)-2-(4-(2-((1-(azetidin-1-ylmethyl)cyclopropyl)methoxy)-7-(8-chloro-7-fluoronaphthalen-1-yl)-5,6,7,8-tetrahydropyrido[3,4-d]pyrimidin-4-yl)-1-(2-fluoroacroloyl)piperazin-2-yl) acetonitrile] | 
810 nM | C=C(F)C(=O)N1CCN(c2nc(OCC3(CN4CC(F)(F)C4)CC3)nc3c2CCN(c2cccc4ccc(F)c(Cl)c24)C3)C[C@@H]1CC#N [Example 59] | 
92 nM | C=C(F)C(=O)N1CCN(c2nc(OCC3(CN(CC)CC)CC3)nc3c2CCN(c2cccc4ccc(F)c(Cl)c24)C3)C[C@@H]1CC#N [Example 60, (S)-2-(4-(7-(8-chloro-7-fluoronaphthalen-1-yl)-2-((1-((diethylamino)methyl)cyclopropyl)methoxy)-5,6,7,8-tetrahydropyrido[3,4-d]pyrimidin-4-yl)-1-(2-fluoroacroloyl)piperazin-2-yl) acetonitrile] | 
110 nM | C=C(F)C(=O)N1CCN(c2nc(OCC3(CN(C)C(C)C)CC3)nc3c2CCN(c2cccc4ccc(F)c(Cl)c24)C3)C[C@@H]1CC#N [Example 61, (S)-2-(4-(7-(8-chloro-7-fluoronaphthalen-1-yl)-2-((1-((isopropyl(methyl)amino)methyl)cyclopropyl)methoxy)-5,6,7,8-tetrahydropyrido [3,4-d]pyrimidin-4-yl)-1-(2-fluoroacroloyl)piperazin-2-yl) acetonitrile] | 
36 nM | C=C(F)C(=O)N1CCN(c2nc(OCC3(CN(C)CC)CC3)nc3c2CCN(c2cccc4ccc(F)c(Cl)c24)C3)C[C@@H]1CC#N [Example 62, (S)-2-(4-(7-(8-chloro-7-fluoronaphthalen-1-yl)-2-((1-((ethyl(methyl)amino)methyl)cyclopropyl)methoxy)-5,6,7,8-tetrahydropyrido[3,4-d]pyrimidin-4-yl)-1-(2-fluoroacroloyl)piperazin-2-yl) acetonitrile] | 
7 nM | [2H]C([2H])([2H])N(CC1(COc2nc3c(c(N4CCN(C(=O)C(=C)F)[C@@H](CC#N)C4)n2)CCN(c2cccc4ccc(F)c(Cl)c24)C3)CC1)C([2H])([2H])[2H] [Example 63] | 
45 nM | C=C(F)C(=O)N1CCN(c2nc(OCC3(CN4CC(F)C4)CC3)nc3c2CCN(c2cccc4ccc(F)c(Cl)c24)C3)C[C@@H]1CC#N [Example 65, (S)-2-(4-(7-(8-chloro-7-fluoronaphthalen-1-yl)-2-((1-((3-fluoroazetidin-1-yl)methyl)cyclopropyl)methoxy)-5,6,7,8-tetrahydropyrido[3,4-d]pyrimidin-4-yl)-1-(2-fluoroacroloyl)piperazin-2-yl) acetonitrile] | 
180 nM | C=C(F)C(=O)N1CCN(c2nc(OCC3(CN4CC(F)C4)CC3)nc3c2CCN(c2cccc4ccc(F)cc24)C3)C[C@@H]1CC#N [Example 66] | 
51 nM | C=C(F)C(=O)N1CCN(c2nc(OCC3(CN4CC(C)C4)CC3)nc3c2CCN(c2cccc4ccc(F)c(Cl)c24)C3)C[C@@H]1CC#N [Example 67, (S)-2-(4-(7-(8-chloro-7-fluoronaphthalen-1-yl)-2-((1-((3-methylazetidin-1-yl)methyl)cyclopropyl)methoxy)-5,6,7,8-tetrahydropyrido[3,4-d]pyrimidin-4-yl)-1-(2-fluoroacroloyl)piperazin-2-yl) acetonitrile] | 
86 nM | C=C(F)C(=O)N1CCN(c2nc(OCC3(CN4CC(O)C4)CC3)nc3c2CCN(c2cccc4ccc(F)c(Cl)c24)C3)C[C@@H]1CC#N [Example 68, (S)-2-(4-(7-(8-chloro-7-fluoronaphthalen-1-yl)-2-((1-((3-hydroxyazetidin-1-yl)methyl)cyclopropyl)methoxy)-5,6,7,8-tetrahydropyrido [3,4-d]pyrimidin-4-yl)-1-(2-fluoroacroloyl)piperazin-2-yl) acetonitrile] | 
59 nM | C=C(F)C(=O)N1CCN(c2nc(OCC3(CN(C)CCOC)CC3)nc3c2CCN(c2cccc4cccc(Cl)c24)C3)C[C@@H]1CC#N [Example 69] | 
 | C=CC(=O)N1CCN(c2nc(OCCN(C)CC3(F)CC3)nc3c2CCN(c2cccc4cccc(C)c24)C3)CC1CC#N (stereo not shown) [Example 80, 2-(1-acroloyl-4-(2-(2-(((1-fluorocyclopropyl)methyl) (methyl)amino)ethoxy)-7-(8-methylnaphthalen-1-yl)-5,6,7,8-tetrahydropyrido[3,4-d]pyrimidin-4-yl)piperazin-2-yl) acetonitrile] | < 100 nM
< 100 nM | C=CC(=O)N1CCN(c2nc(OCCN(C)C3CC(F)(F)C3)nc3c2CCN(c2cccc4cccc(C)c24)C3)CC1CC#N (stereo not shown) [Example 85] | 
